The source of these data is ChEMBL document CHEMBL3217606, “New positive allosteric modulators of the metabotropic glutamate receptor 2 (mGluR2). Identification and synthesis of N-propyl-5-substituted isoquinolones” (Medchemcomm, 2011).

Structures are written as SMILES. pEC50: −log10 of the molar value.

Series [1] has as its target T1, Metabotropic glutamate receptor 2 (Homo sapiens, UniProt Q14416). The series is described as follows: Positive allosteric modulation of human mGluR2 expressed in CHO cells assessed as incorporation of [35S]GTPgammaS after 30 mins by scintillation counting analysis. It is filed as functional, cell-based.
Target sequence in this assay (Q14416 whole entry): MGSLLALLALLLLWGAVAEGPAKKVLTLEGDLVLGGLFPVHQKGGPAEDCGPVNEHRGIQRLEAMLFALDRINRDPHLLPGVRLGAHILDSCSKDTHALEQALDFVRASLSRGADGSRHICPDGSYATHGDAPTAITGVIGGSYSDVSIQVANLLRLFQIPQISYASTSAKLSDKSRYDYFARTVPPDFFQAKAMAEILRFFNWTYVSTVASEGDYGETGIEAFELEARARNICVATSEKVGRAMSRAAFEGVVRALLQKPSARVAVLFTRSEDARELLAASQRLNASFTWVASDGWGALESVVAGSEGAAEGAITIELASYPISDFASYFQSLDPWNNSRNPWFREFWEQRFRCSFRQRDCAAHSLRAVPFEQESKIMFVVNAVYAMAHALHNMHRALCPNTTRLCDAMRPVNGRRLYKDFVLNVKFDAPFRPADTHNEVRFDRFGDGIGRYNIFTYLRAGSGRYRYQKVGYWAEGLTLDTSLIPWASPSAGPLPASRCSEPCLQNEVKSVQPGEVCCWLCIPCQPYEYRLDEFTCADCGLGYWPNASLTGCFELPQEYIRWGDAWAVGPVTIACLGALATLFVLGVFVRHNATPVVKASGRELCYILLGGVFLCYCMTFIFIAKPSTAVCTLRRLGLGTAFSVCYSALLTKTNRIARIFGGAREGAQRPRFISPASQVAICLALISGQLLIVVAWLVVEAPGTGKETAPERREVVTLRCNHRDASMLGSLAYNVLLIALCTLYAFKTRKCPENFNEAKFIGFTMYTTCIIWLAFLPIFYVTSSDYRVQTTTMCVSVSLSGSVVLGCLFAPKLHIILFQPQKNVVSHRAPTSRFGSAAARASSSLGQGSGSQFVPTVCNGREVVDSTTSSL
In series [2] the target is T1, Metabotropic glutamate receptor 2. The series is described as follows: Positive allosteric modulation of human mGluR2 expressed in CHO cells assessed as incorporation of [35S]GTPgammaS at 0.3 nM to 50 uM after 30 mins by scintillation counting analysis relative to control. The series is classed as functional, cell-based.
Target sequence in this assay (Q14416 19-872 limits assumed): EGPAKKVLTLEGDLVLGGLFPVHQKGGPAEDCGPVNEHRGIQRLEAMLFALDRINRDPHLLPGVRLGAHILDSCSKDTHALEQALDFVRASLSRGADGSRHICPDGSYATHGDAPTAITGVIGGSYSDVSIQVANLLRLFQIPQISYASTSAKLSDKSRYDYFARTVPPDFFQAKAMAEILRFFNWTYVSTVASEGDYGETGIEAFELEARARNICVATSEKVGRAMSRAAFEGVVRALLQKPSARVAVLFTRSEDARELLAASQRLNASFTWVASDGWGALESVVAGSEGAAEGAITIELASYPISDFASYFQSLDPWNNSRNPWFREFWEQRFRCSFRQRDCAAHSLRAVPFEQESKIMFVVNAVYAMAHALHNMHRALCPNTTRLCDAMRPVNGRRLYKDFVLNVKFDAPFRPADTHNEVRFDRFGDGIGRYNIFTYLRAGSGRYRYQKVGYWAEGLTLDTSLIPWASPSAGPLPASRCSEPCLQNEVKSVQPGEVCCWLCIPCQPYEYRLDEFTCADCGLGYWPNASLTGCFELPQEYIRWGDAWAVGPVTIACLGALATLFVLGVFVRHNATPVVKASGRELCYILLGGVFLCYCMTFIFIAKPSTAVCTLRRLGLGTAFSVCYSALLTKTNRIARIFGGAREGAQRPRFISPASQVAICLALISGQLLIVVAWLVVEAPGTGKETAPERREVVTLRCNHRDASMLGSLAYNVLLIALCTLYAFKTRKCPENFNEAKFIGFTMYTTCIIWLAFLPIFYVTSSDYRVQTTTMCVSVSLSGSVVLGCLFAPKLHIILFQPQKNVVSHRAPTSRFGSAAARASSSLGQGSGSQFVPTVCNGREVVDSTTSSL
The nature of series [3]: Drug metabolism in human liver microsomes at 5 uM after 15 mins. As to conditions: read-out: Drug metabolism. The series is classed as ADME. For orientation: Liver microsomes are a subcellular fraction often used to study metabolism.
The target in series [4] is T1, Metabotropic glutamate receptor 2. The series is described as follows: Potentiation of human mGluR2 expressed in CHO cells assessed as fold shift in glutamate concentration response curve at 3 uM relative to control. It is filed as cell-based.
Target sequence in this assay (Q14416 19-872 limits assumed): as above
Series [5] has the same target. The series is described as follows: Positive allosteric modulation of mGluR2 (unknown origin) by FLIPR assay.
Target sequence in this assay (Q14416 whole entry): as the sequence (Q14416 whole entry) above

What is called pEC50 is −log10 of the EC50, conventionally taken in molar units. By Emax is commonly meant the greatest response seen or fitted, relative to the assay's reference. Consider `CCCn1ccc2c(NCCc3cccc(OC)c3)cccc2c1=O`, for which, in series [1], the negative logarithm of the EC50 (pEC50) was 6.60. Further, the maximum response (Emax) in series [2] amounted to 110%.
`CCCn1ccc2c(NCc3cccc(OC(F)(F)F)c3)cccc2c1=O`: the pEC50 in series [1] was 6.70. The metabolised at 0.25 h, 5 µM in series [3] came to 34%. Further, the Emax in series [2] is 162%.
As to `CCCn1ccc2c(NCCc3ccccc3)ccc(Cl)c2c1=O`, the pEC50 in series [1] was 6.60. Besides, the Emax in series [2] stood at 68%.
For `CCCn1ccc2c(N(C)CCc3ccc(OC)cc3)cccc2c1=O`, in series [1], the pEC50 was 6.40. In series [2], the Emax came out at 93%.
Turning to `CCCn1ccc2c(NCc3ccccc3Cl)cccc2c1=O`, in series [1], the pEC50 is 6.70. Besides, in series [4], the fold change (FC) amounted to 6.6. The metabolised at 0.25 h, 5 µM in series [3] is 26%. Moreover, the maximal effect (Emax) in series [2] amounted to 163%.
Consider `CCCn1ccc2c(NCCCc3ccccc3)cccc2c1=O`, for which the negative-log EC50 (pEC50) in series [1] is 6.80. Further, in series [3], the metabolised at 0.25 h, 5 µM was found to be 57%. Moreover, the maximum response (Emax) in series [2] stood at 112%.
Consider `CCCn1ccc2c(NCc3ccc(OC)cc3)cccc2c1=O`, for which the negative-log EC50 (pEC50) in series [1] was 6.30. The Emax in series [2] worked out at 81%.
With `CCCn1ccc2c(NCCc3ccc(OC)cc3)cccc2c1=O`, in series [1], the pEC50 was 6.60. The metabolised at 0.25 h, 5 µM in series [3] stood at 97%. Besides, the maximum response (Emax) in series [2] was determined as 92%.
For `CCCn1ccc2c(NCc3ccccc3)cccc2c1=O`, in series [1], the pEC50 is 5.70. In addition, the metabolised at 0.25 h, 5 µM in series [3] was 38%. The Emax in series [2] was determined as 80%.
Turning to `CCCn1ccc2c(NCCc3ccccc3)cccc2c1=O`, the negative logarithm of the EC50 (pEC50) is 6.30 in series [1] and 6.80 in series [5]. The metabolised at 0.25 h, 5 µM in series [3] was found to be 52%. Besides, in series [2], the maximal response (Emax) stood at 123%.
For the compound `CCCn1ccc2c(NCCc3ccccc3OC)cccc2c1=O`, in series [1], the pEC50 was 6.90. The metabolised at 0.25 h, 5 µM in series [3] worked out at 91%. In addition, in series [2], the Emax was 137%.
Regarding `CCCn1ccc2c(NCc3cccc(OC)c3)cccc2c1=O`, the pEC50 in series [1] is 6.50. For the same compound, the Emax in series [2] was 129%.
Regarding `CCCn1ccc2c(NCCc3ccc(C)cc3)cccc2c1=O`, in series [1], the negative-log EC50 (pEC50) is 6.70. Also, the Emax in series [2] was determined as 134%.
Consider `CCCn1ccc2c(OCCc3ccc(OC)cc3)cccc2c1=O`, for which the pEC50 in series [1] is 6.60. For the same compound, the Emax in series [2] was found to be 123%.
With `CCCn1ccc2c(NCc3cccc(Oc4ccccc4)c3)cccc2c1=O`, the pEC50 in series [1] is 5.90. For the same compound, the Emax in series [2] is 65%.
